# Literature values as cited in patent US11517624B2, “Pharmaceutical composition for the parenteral administration of ultrashort-effective β-adrenoreceptor antagonists” (AOP ORPHAN PHARMACEUTICALS AG, priority 2007, dated 2022).
compound,measurement,value
COCCc1ccc(OCC(O)CNC(C)C)cc1 (stereo not shown) [metoprolol],elimination half-life t1/2,1.5 h
